For 23 compounds, cytotoxicity and Cell death results are on record in patent publication US11884647B2, “Compounds and methods for targeting pathogenic blood vessels” (THE REGENTS OF THE UNIVERSITY OF CALIFORNIA, priority 2019, dated 2024).

The test system of assay [1] is tumor endothelial cells (LL/2 lung cancer tumor). As to the kind of experiment: Lung LL2 ex vivo model of tumor angiogenesis. The note with it: for cytotoxicity at 40 µM: Mus musculus, Endothelial cell, 48 h, read-out: Cell death. It is filed as cell-based, mouse. An outline of the steps: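 Read-out is live/dead fluorescence imaging (fluorescein diacetate green, propidium iodide red, 10 min at 37° C) at 2×, taken e.g. 48 h after drug addition. Fragments of mouse LL2 tumor are cultured in Matrigel with endothelial growth medium, usually 4 days, until new endothelial cells grow out, then treated.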

The test system of assay [2] is tumor endothelial cells (CT26.CL25 colon cancer tumor). The assay is described as follows: Colon CT26 ex vivo model of tumor angiogenesis. It is filed as cell-based. The note with it: Mus musculus, CT26, 48 h, read-out: Cell death. The procedure:
This example describes a procedure to prepare a primary tumor angiogenesis model for assessing the efficacy of anti-cancer candidate agents.
1. The day before the experiment, spray all necessary tools with 70% ethanol and sterilize them under UV light overnight, including blade, dissecting and micro-dissecting scissors and […]. Place 24-well dishes at 4° C. to pre-chill plates and thaw Matrigel 24 hours before tumor dissection.
2. Spray 70% ethanol on working bench. Prepare two sterile petri dishes with 10 mL sterile PBS. Steps 3 and 4 are for mouse tumor models. For fresh human tumor, directly go to step 5.
3. Euthanize the tumor-bearing mice. Spray 70% ethanol on the mouse and remove the tumor using sterilized dissecting tools (avoid the fur). Rinse the tumor in petri dish with sterile PBS to remove ethanol and fur. Transfer the tumor to a new petri dish with PBS for dissection. Place the dish on ice.
4. Using pre-chilled sterile pipet tips to seed regular Matrigel in 24 well plates on ice. Matrigel (30 μL) is dropped in the middle of each well without touching the edge of the well (avoid introducing bubbles if possible).
5. Cut the tumor in halves using the sterile blade. Identify and isolate healthy tumor tissue that is not necrotic and is within the tumor capsule. Cut the healthy tumor tissue into small pieces. For instance, a suitable size for the tumor tissue is 0.5 mm (H)×0.5 mm (L)×0.3 mm (D) with a total volume of 0.075 mm^3.
6. Gently transfer and embed each tumor piece in the Matrigel drop in the 24-well plate. Place the embedded piece in the bottom and middle of each Matrigel drop. Keep the plate on ice all the time.
7. After seeding the tumor pieces, plates are incubated in a 37° C. cell culture incubator without medium for 10 minutes in order for the Matrigel to solidify.
8. Endothelial Growth Medium (0.5 mL) is added to each well and incubated at 37° C. with 5% CO2. Wait until the new endothelial cells have grown out of the tumor or are larger than 3 mm in diameter until treatment. This usually takes 4 days for the LL2 Lewis lung cancer model and 7 days for the CT26 colon cancer model. For human tumor models, the growth time is typically 2-3 weeks, depending on the tumor type. Media is changed every 4 days during prolonged culture. Typically, when the tumor tissue grows to 2 mm in diameter, it is good for drug testing. A size of about 3 mm in diameter can make visualization easier.
9. When the assay is ready to be analyzed for cell death (e.g., 48 hours after drug addition), prepare the dye mixture by mixing 6 μL of green dye to stain live cells (5 mg/mL Fluorescein diacetate or FDA in DMSO) with 30 μL of red dye (2.5 mg/mL Propidium iodide or PI in PBS) to stain dead cells in an Eppendorf tube. The FDA dye needs to be stored frozen in a −20° C. freezer because it has a labile ester bond.
10. Add 1 μL of the dye mixture to each well of the 24-well dish. It is usually performed one 24-well dish at a time given the amount of time needed to take pictures (the green dye is not as stable in the cells in the long term).
11. Gently rock the dish a few times to mix the dye with the media in the wells and incubate the dish at 37° C. for 10 min (too long incubation can make the green signal too intense).
12. Wash each well with 0.5 mL of sterile PBS and then add 0.5 mL of phenol red free SFM to each well. Alternatively 0.5 mL of regular Endothelial Cell Growth Media can be added to each well if this well needs to be continuously maintained after the experiment.
13. Look through all wells on an inverted microscope using the 2× objective lens to observe morphological changes.
14. Taking pictures in the red and green channels would allow not only the recording of the result but also more accurate quantitation of the result. To take pictures for all the wells, first pick a well that has robust red and green signals. […]

Take `CCc1ccc(S(=O)(=O)c2cnc3ccc(OC(F)(F)F)cc3c2N2CCCN(CC(=O)O)CC2)cc1` [compound 42, 2-(4-(3-((4-ethylphenyl)sulfonyl)-6-(trifluoromethoxy)quinolin-4-yl)-1,4-diazepan-1-yl)acetic acid]: the cytotoxicity at 40 µM in assay [1] came to 30%; in assay [2] it was 0%. Taken in the same sequence, the figures for `COc1ccc(S(=O)(=O)c2cnc3ccc(OC(F)(F)F)cc3c2N2CCC(N3CCCCC3)CC2)cc1` [compound 43, 4-([1,4′-bipiperidin]-1′-yl)-3-((4-methoxyphenyl)sulfonyl)-6-(trifluoromethoxy)quinoline] were 100% and 90%. The matching figures for `COc1ccc(S(=O)(=O)c2cnc3ccc(OC(F)(F)F)cc3c2N2CCC(O)CC2)cc1` [compound 44, 1-(3-((4-methoxyphenyl)sulfonyl)-6-(trifluoromethoxy)quinolin-4-yl)piperidin-4-ol]: 50% and 0%. Regarding `CCc1ccc(S(=O)(=O)c2cnc3ccc(OC(F)(F)F)cc3c2N2CCN(c3ccc(C#N)cc3)CC2)cc1` [compound 45, 4-(4-(3-((4-ethylphenyl)sulfonyl)-6-(trifluoromethoxy)quinolin-4-yl)piperazin-1-yl)benzonitrile], the Cell death in assay [1] (Lung LL2 ex vivo, Conc. 40 μm, drug treatment two days) stood at 10%. Also, the cytotoxicity at 40 µM in assay [2] is 0%.

Regarding `CCc1ccc(S(=O)(=O)c2cnc3ccc(OC(F)(F)F)cc3c2N2CCC(N3CCCC3)CC2)cc1` [compound 46, 3-((4-ethylphenyl)sulfonyl)-4-(4-(pyrrolidin-1-yl)piperidin-1-yl)-6-(trifluoromethoxy)quinoline], the cytotoxicity at 40 µM in assay [1] and in assay [2] was 100% throughout. Consider `CCOC(=O)C1CCN(c2c(S(=O)(=O)c3ccc(CC)cc3)cnc3ccc(OC(F)(F)F)cc23)CC1` [compound 47, ethyl 1-(3-((4-ethylphenyl)sulfonyl)-6-(trifluoromethoxy)quinolin-4-yl)piperidine-4-carboxylate], for which the cytotoxicity at 40 µM in assay [1] worked out at 50%; in assay [2], 10%. On to `CCc1ccc(S(=O)(=O)c2cnc3ccc(OC(F)(F)F)cc3c2N2CCC(CO)CC2)cc1` [compound 48, (1-(3-((4-ethylphenyl)sulfonyl)-6-(trifluoromethoxy)quinolin-4-yl)piperidin-4-yl)methanol], for which the cytotoxicity at 40 µM was determined as 60% in assay [1] and 10% in assay [2]. Take `CCc1ccc(S(=O)(=O)c2cnc3ccc(OC(F)(F)F)cc3c2N(C)Cc2ccccc2)cc1` [compound 49, N-benzyl-3-((4-ethylphenyl)sulfonyl)-N-methyl-6-(trifluoromethoxy)quinolin-4-amine]: the cytotoxicity at 40 µM in assay [1] turned out to be 30%; in assay [2], 10%. As for `CCc1ccc(S(=O)(=O)c2cnc3ccc(OC(F)(F)F)cc3c2NN2CCN(C)CC2)cc1` [compound 50, 3-((4-ethylphenyl)sulfonyl)-N-(4-methylpiperazin-1-yl)-6-(trifluoromethoxy)quinolin-4-amine], the cytotoxicity at 40 µM amounted to 90% in assay [1] and 100% in assay [2]. As for `CCOC(=O)c1ccc2ncc(S(=O)(=O)c3ccc(OC)cc3)c(N3CCC(N4CCCCC4)CC3)c2c1` [compound 136, ethyl 4-([1,4′-bipiperidin]-1′-yl)-3-((4-methoxyphenyl)sulfonyl)quinoline-6-carboxylate], in assay [2], the cytotoxicity at 40 µM was 30%. Take `CCOC(=O)c1ccc2ncc(S(=O)(=O)c3ccc(OC)cc3)c(N3CCCC(O)C3)c2c1` (centres unmarked) [compound 137, ethyl 4-(3-hydroxypiperidin-1-yl)-3-((4-methoxyphenyl)sulfonyl)quinoline-6-carboxylate]: in assay [2], the cytotoxicity at 40 µM came out at 40%. `CCOC(=O)c1ccc2ncc(S(=O)(=O)c3ccc(OC)cc3)c(N3CCC(N4CCC(O)CC4)CC3)c2c1` [compound 138, ethyl 4-(4-hydroxy-[1,4′-bipiperidin]-1′-yl)-3-((4-methoxyphenyl)sulfonyl)quinoline-6-carboxylate]: the cytotoxicity at 40 µM in assay [2] turned out to be 20%. As to `CCOC(=O)c1ccc2ncc(S(=O)(=O)c3ccc(OC)cc3)c(N3CCCN(CCN(CC)CC)CC3)c2c1` [compound 139, ethyl 4-(4-(2-(diethylamino)ethyl)-1,4-diazepan-1-yl)-3-((4-methoxyphenyl)sulfonyl)quinoline-6-carboxylate], the cytotoxicity at 40 µM in assay [2] turned out to be 40%.

On to `CCOC(=O)c1ccc2ncc(S(=O)(=O)c3ccc(OC)cc3)c(N3CCC(OCCN(CC)CC)CC3)c2c1` [compound 140, ethyl 4-(4-(2-(diethylamino)ethoxy)piperidin-1-yl)-3-((4-methoxyphenyl)sulfonyl)quinoline-6-carboxylate], for which the cytotoxicity at 40 µM in assay [2] was 60%.

With `CCOC(=O)c1ccc2ncc(S(=O)(=O)c3ccc(OC)cc3)c(N3CCCN(C)CC3)c2c1` [compound 144, ethyl 3-((4-methoxyphenyl)sulfonyl)-4-(4-methyl-1,4-diazepan-1-yl)quinoline-6-carboxylate], the cytotoxicity at 40 µM in assay [2] turned out to be 30%. As to `CCc1ccc(S(=O)(=O)c2cnc3ccc(OC(F)(F)F)cc3c2N2CCC(O)(c3ccc(OC)cc3)CC2)cc1` [compound 145, 1-(3-((4-ethylphenyl)sulfonyl)-6-(trifluoromethoxy)quinolin-4-yl)-4-(4-methoxyphenyl)piperidin-4-ol], in assay [2], the cytotoxicity at 40 µM came out at 30%. Regarding `CCc1ccc(S(=O)(=O)c2cnc3ccc(OC(F)(F)F)cc3c2N2CCC(O)(c3cccc(OC)c3)CC2)cc1` [compound 146, 1-(3-((4-ethylphenyl)sulfonyl)-6-(trifluoromethoxy)quinolin-4-yl)-4-(3-methoxyphenyl)piperidin-4-ol], the cytotoxicity at 40 µM in assay [2] was 0%.

With `CCc1ccc(S(=O)(=O)c2cnc3ccc(OC(F)(F)F)cc3c2N2CCC(O)(c3ccc4c(c3)OCO4)CC2)cc1` [compound 147, 4-(benzo[d][1,3]dioxol-5-yl)-1-(3-((4-ethylphenyl)sulfonyl)-6-(trifluoromethoxy)quinolin-4-yl)piperidin-4-ol], the cytotoxicity at 40 µM in assay [2] came out at 0%. Still for that read-out and setting: with `CCOC(=O)c1ccc2ncc(S(=O)(=O)c3ccc(CC)cc3)c(N3CCC(O)(c4ccc(OC)cc4)CC3)c2c1` [compound 148, ethyl 3-((4-ethylphenyl)sulfonyl)-4-(4-hydroxy-4-(4-methoxyphenyl)piperidin-1-yl)quinoline-6-carboxylate] the figure was 0%; with `CCOC(=O)c1ccc2ncc(S(=O)(=O)c3ccc(CC)cc3)c(N3CCC(O)(c4cccc(OC)c4)CC3)c2c1` [compound 149, ethyl 3-((4-ethylphenyl)sulfonyl)-4-(4-hydroxy-4-(3-methoxyphenyl)piperidin-1-yl)quinoline-6-carboxylate], 20%. With `COc1ccc(S(=O)(=O)c2cnc3ccc(OC(F)(F)F)cc3c2N2CCC(O)(c3cccc(OC)c3)CC2)cc1` [compound 150, 4-(3-methoxyphenyl)-1-(3-((4-methoxyphenyl)sulfonyl)-6-(trifluoromethoxy)quinolin-4-yl)piperidin-4-ol], in assay [2], the cytotoxicity at 40 µM was 10%.

As to `COc1ccc(S(=O)(=O)c2cnc3ccc(SC)cc3c2N2CCC(N3CCC(O)CC3)CC2)cc1OC` [compound 153, 1′-(3-((3,4-dimethoxyphenyl)sulfonyl)-6-(methylthio)quinolin-4-yl)-[1,4′-bipiperidin]-4-ol], the cytotoxicity at 40 µM in assay [2] was determined as 20%.

Consider `CCCCOc1ccc(S(=O)(=O)c2cnc3ccc(SC)cc3c2N2CCCN(CCN3CCCC3)CC2)cc1` [compound 207, 3-((4-butoxyphenyl)sulfonyl)-6-(methylthio)-4-(4-(2-(pyrrolidin-1-yl)ethyl)-1,4-diazepan-1-yl)quinoline], for which the cytotoxicity at 40 µM in assay [2] was determined as 100%.
